From patent publication US9758537B2 (Achillion Pharmaceuticals, Inc., priority 2014, dated 2017)

These molecules were tested against Human factor D (Homo sapiens (Human), UniProt P00746) (assay: Human Factor D Assay). Settings: human factor D 80 nM, substrate Z-L-Lys-SBzl, DTNB, OD405.
Assay type: biochemical
Procedure: Human factor D (purified from human serum, Complement Technology, Inc.) at 80 nM final concentration is incubated with test compound at various concentrations for 5 minutes at room temperature in 50 mM Tris, 1M NaCl, pH 7.5. A synthetic substrate Z-L-Lys-SBzl and DTNB (Ellman's reagent) are added to final concentrations of 10 μM each. The increase in color is recorded at OD405 nm in a microplate in kinetic mode over 30 minutes with 30 second time points in a […]. IC50 values are calculated by non-linear regression from the percentage of inhibition of complement factor D activity as a function of test compound concentration.

Chain of Human factor D (P00746 26-253): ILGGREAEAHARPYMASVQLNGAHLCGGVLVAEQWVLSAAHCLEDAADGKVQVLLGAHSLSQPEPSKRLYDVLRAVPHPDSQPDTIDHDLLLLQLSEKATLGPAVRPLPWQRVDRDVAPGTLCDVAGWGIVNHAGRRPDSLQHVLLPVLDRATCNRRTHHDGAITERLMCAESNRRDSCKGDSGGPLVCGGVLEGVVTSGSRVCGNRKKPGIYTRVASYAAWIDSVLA

`CC(C)(C)OC(=O)N[C@@H](Cc1c[nH]c2ccccc12)C(=O)N1C[C@H](F)C[C@H]1C(=O)NCc1cccc(Cl)c1F` [Compound 38, tert-butyl (S)-1-((2S,4R)-2-(3-chloro-2-fluorobenzylcarbamoyl)-4-fluoropyrrolidin-1-yl)-3-(1H-indol-3-yl)-1-oxopropan-2-ylcarbamate] and `CC(C)(C)OC(=O)N1CCc2c(n(CC(=O)N3C[C@H](F)C[C@H]3C(=O)NCc3cccc(Cl)c3F)c3ccccc23)C1` [Compound 67, tert-butyl 9-(2-((2S,4R)-2-(3-chloro-2-fluorobenzylcarbamoyl)-4-fluoropyrrolidin-1-yl)-2-oxoethyl)-3,4-dihydro-1H-pyrido[3,4-b]indole-2(9H)-carboxylate] cannot be ordered by IC50: greater than 10 µM for the first, greater than 10 µM for the second.

First: O=C(NCc1cccc(Cl)c1F)[C@@H]1C[C@@H](F)CN1C(=O)c1csc(-c2cccnc2)n1 [Compound 50, (2S,4R)-N-(3-chloro-2-fluorobenzyl)-4-fluoro-1-(2-(pyridin-3-yl)thiazole-4-carbonyl)pyrrolidine-2-carboxamide]
Second: O=C(NCc1cccc(Cl)c1F)[C@@H]1C[C@@H](F)CN1C(=O)Cn1nc(I)c2ccncc21 [Compound 52, (2S,4R)-N-(3-chloro-2-fluorobenzyl)-4-fluoro-1-(2-(3-iodo-1H-pyrazolo[3,4-c]pyridin-1-yl)acetyl)pyrrolidine-2-carboxamide]
The IC50 of the first is higher: greater than 10 µM for the first, less than 1 µM for the second. The second is the more potent here.

`NC(=O)c1nn(CC(=O)N2C[C@H](F)C[C@H]2C(=O)Nc2cccc(-c3cc(F)c(F)cc3Cl)c2F)c2ccccc12` [Compound 80, 1-(2-((2S,4R)-2-(2′-chloro-2,4′,5′-trifluorobiphenyl-3-ylcarbamoyl)-4-fluoropyrrolidin-1-yl)-2-oxoethyl)-1H-indazole-3-carboxamide] and `NC(=O)c1nn(CC(=O)N2C[C@H](F)C[C@H]2C(=O)Nc2cccc(-c3cc(F)cc(F)c3Cl)c2F)c2ccccc12` [Compound 94, 1-(2-((2S,4R)-2-(2′-chloro-2,3′,5′-trifluorobiphenyl-3-ylcarbamoyl)-4-fluoropyrrolidin-1-yl)-2-oxoethyl)-1H-indazole-3-carboxamide] cannot be ordered by IC50: less than 1 µM for the first, less than 1 µM for the second.

`NC(=O)n1cc(NC(=O)C2=C(C(=O)NCc3cccc(Cl)c3F)CCC2)c2ccccc21` [Compound 31, N1-(1-carbamoyl-1H-indol-3-yl)-N2-(3-chloro-2-fluorobenzyl)cyclopent-1-ene-1,2-dicarboxamide] and `CC(=O)n1cc(NC(=O)[C@@H]2C[C@H](F)CN2C(=O)NCc2cccc(Cl)c2F)c2ccccc21` [Compound 4, (2S,4S)-N2-(1-acetyl-1H-indol-3-yl)-N1-(3-chloro-2-fluorobenzyl)-4-fluoropyrrolidine-1,2-dicarboxamide] cannot be ordered by IC50: greater than 10 µM for the first, greater than 10 µM for the second.

`NC(=O)c1nn(CC(=O)N2[C@@H]3C[C@@H]3C[C@H]2C(=O)NCc2cccc(Cl)c2F)c2ccsc12` [Compound 107, 1-(2-((1R,3S,5R)-3-(3-chloro-2-fluorobenzylcarbamoyl)-2-azabicyclo[3.1.0]hexan-2-yl)-2-oxoethyl)-1H-thieno[3,2-c]pyrazole-3-carboxamide] and `NC(=O)c1nn(CC(=O)N2C[C@H](F)C[C@H]2C(=O)Nc2cccc(-c3ccccc3Cl)c2F)c2ccsc12` [Compound 99, 1-(2-((2S,4R)-2-(2′-chloro-2-fluorobiphenyl-3-ylcarbamoyl)-4-fluoropyrrolidin-1-yl)-2-oxoethyl)-1H-thieno[3,2-c]pyrazole-3-carboxamide] cannot be ordered by IC50: less than 1 µM for the first, less than 1 µM for the second.

`CC(=O)c1cn(CC(=O)N2[C@@H]3CCC[C@@H]3C[C@H]2C(=O)NCc2cccc(Cl)c2F)c2cc(O)ccc12` [Compound 62] and `CC(=O)c1cn(CC(=O)N2CC[C@@H](OCC3CC3)[C@H]2C(=O)NCc2cccc(Cl)c2F)c2ccccc12` [Compound 18, (2S,3R)-1-(2-(3-acetyl-1H-indol-1-yl)acetyl)-N-(3-chloro-2-fluorobenzyl)-3-(cyclopropylmethoxy) pyrrolidine-2-carboxamide] cannot be ordered by IC50: less than 1 µM for the first, less than 1 µM for the second.

Going from `NC(=O)n1cc(NC(=O)N2C[C@H](F)C[C@H]2C(=O)NS(=O)(=O)c2cccc(Cl)c2F)c2ccccc21` [Compound 6, (2S,4R)-N1-(1-carbamoyl-1H-indol-3-yl)-N2-(3-chloro-2-fluorophenylsulfonyl)-4-fluoropyrrolidine-1,2-dicarboxamide] to `O=C(NCc1cccc(Cl)c1F)[C@@H]1C[C@@H](F)CN1C(=O)Nc1cn(C(=O)C2CC2)c2ccccc12` [Compound 54, (2S,4R)-N2-(3-chloro-2-fluorobenzyl)-N1-(1-(cyclopropanecarbonyl)-1H-indol-3-yl)-4-fluoropyrrolidine-1,2-dicarboxamide], the IC50 falls from greater than 10 µM to less than 1 µM. The second is the more potent here.

`COc1ccc2c(O[C@@H]3C[C@@H](C(=O)NCc4cccc(Cl)c4F)N(C(=O)Cn4cc(C(C)=O)c5ccccc54)C3)cc(-c3ccccc3)nc2c1` [Compound 29, (2S,4R)-1-(2-(3-acetyl-1H-indol-1-yl)acetyl)-N-(3-chloro-2-fluorobenzyl)-4-(7-methoxy-2-phenylquinolin-4-yloxy)pyrrolidine-2-carboxamide] and `COc1ccc2c(O[C@@H]3C[C@@H](C(=O)NCc4cccc(Cl)c4F)N(C(=O)Nc4cn(C(C)=O)c5ccccc45)C3)cc(-c3ccccc3)nc2c1` [Compound 19, (2S,4R)-N1-(1-acetyl-1H-indol-3-yl)-N2-(3-chloro-2-fluorobenzyl)-4-(7-methoxy-2-phenylquinolin-4-yloxy)pyrrolidine-1,2-dicarboxamide] cannot be ordered by IC50: greater than 10 µM for the first, greater than 10 µM for the second.

`NC(=O)c1nn(CC(=O)N2C[C@H](F)C[C@H]2C(=O)Nc2cccc(-c3cc(F)c(F)cc3Cl)c2F)c2cnccc12` [Compound 83, 1-(2-((2S,4R)-2-(2′-chloro-2,4′,5′-trifluorobiphenyl-3-ylcarbamoyl)-4-fluoropyrrolidin-1-yl)-2-oxoethyl)-1H-pyrazolo[3,4-c]pyridine-3-carboxamide] and `NC(=O)c1nn(CC(=O)N2C[C@H](F)C[C@H]2C(=O)Nc2cccc(-c3ccc4[nH]cnc4c3Cl)c2F)c2ccccc12` [Compound 122, 1-(2-((2S,4R)-2-(3-(4-chloro-1H-benzo[d]imidazol-5-yl)-2-fluorophenylcarbamoyl)-4-fluoropyrrolidin-1-yl)-2-oxoethyl)-1H-indazole-3-carboxamide] cannot be ordered by IC50: less than 1 µM for the first, less than 1 µM for the second.

`NC(=O)c1nn(CC(=O)N2C[C@H](F)C[C@H]2C(=O)Nc2cccc(-c3ccccc3Cl)c2F)c2c1CCCC2` [Compound 104, 1-(2-((2S,4R)-2-(2′-chloro-2-fluorobiphenyl-3-ylcarbamoyl)-4-fluoropyrrolidin-1-yl)-2-oxoethyl)-4,5,6,7-tetrahydro-1H-indazole-3-carboxamide] and `CC(=O)c1cn(CC(=O)N2C[C@H](F)C[C@H]2C(=O)Nc2cccc(-c3ccccc3Cl)c2F)c2c(C#N)cccc12` [Compound 79, (2S,4R)-1-(2-(3-acetyl-7-cyano-1H-indol-1-yl)acetyl)-N-(2′-chloro-2-fluorobiphenyl-3-yl)-4-fluoropyrrolidine-2-carboxamide] cannot be ordered by IC50: less than 1 µM for the first, less than 1 µM for the second.

Going from `O=C(NCc1cccc(Cl)c1F)[C@@H]1C[C@@H](F)CN1C(=O)CN1C=NS(=O)(=O)c2ccccc21` [Compound 65, (2S,4R)-N-(3-chloro-2-fluorobenzyl)-1-(2-(1,1-dioxido-4H-benzo[e][1,2,4]thiadiazin-4-yl)acetyl)-4-fluoropyrrolidine-2-carboxamide] to `C=C(F)c1nn(CC(=O)N2C[C@H](F)C[C@H]2C(=O)NCc2cccc(Cl)c2F)c2cnccc12` [Compound 74, (2S,4R)-N-(3-chloro-2-fluorobenzyl)-4-fluoro-1-(2-(3-(1-fluorovinyl)-1H-pyrazolo[3,4-c]pyridin-1-yl)acetyl)pyrrolidine-2-carboxamide], the IC50 falls from greater than 10 µM to less than 1 µM.

`NC(=O)n1cc(NC(=O)N2C[C@H](F)C[C@H]2Cn2cc(-c3ccc(F)cc3)nn2)c2ccccc21` [Compound 28, 3-((2S,4R)-4-fluoro-2-((4-(4-fluorophenyl)-1H-1,2,3-triazol-1-yl)methyl)pyrrolidine-1-carboxamido)-1H-indole-1-carboxamide] and `CC(=O)n1cc(NC(=O)[C@H]2CC(F)(F)CN2C(=O)NCc2cccc(Cl)c2F)c2ccccc21` [Compound 8, (R)-N2-(1-acetyl-1H-indol-3-yl)-N1-(3-chloro-2-fluorobenzyl)-4,4-difluoropyrrolidine-1,2-dicarboxamide] cannot be ordered by IC50: greater than 10 µM for the first, greater than 10 µM for the second.

`CC(=O)Nc1cccc2c1c(C(C)=O)cn2CC(=O)N1C[C@H](F)C[C@H]1C(=O)Nc1cccc(-c2ccccc2Cl)c1F` [Compound 91, (2S,4R)-1-(2-(4-acetamido-3-acetyl-1H-indol-1-yl)acetyl)-N-(2′-chloro-2-fluorobiphenyl-3-yl)-4-fluoropyrrolidine-2-carboxamide] and `CC(=O)c1cn(CC(=O)N2C[C@H](F)C[C@H]2C(=O)N(C)Cc2cccc(Cl)c2F)c2ccccc12` [Compound 34, (2S,4R)-1-(2-(3-acetyl-1H-indol-1-yl)acetyl)-N-(3-chloro-2-fluorobenzyl)-4-fluoro-N-methylpyrrolidine-2-carboxamide] cannot be ordered by IC50: greater than 10 µM for the first, greater than 10 µM for the second.

`CC(=O)c1cn(CC(=O)N2C[C@H](F)C[C@H]2C(=O)NCc2cc(P(=O)(O)O)cc(Cl)c2F)c2ccccc12` [Compound 63, 3-(((2S,4R)-1-(2-(3-acetyl-1H-indol-1-yl)acetyl)-4-fluoropyrrolidine-2-carboxamido)methyl)-5-chloro-4-fluorophenylphosphonic acid] and `NC(=O)c1nn(CC(=O)N2[C@@H]3C[C@@H]3C[C@H]2C(=O)Nc2cccc(-c3ccccc3Cl)c2F)cc1Br` [Compound 77, (1R,3S,5R)-2-(2-(4-bromo-3-carbamoyl-1H-pyrazol-1-yl)acetyl)-N-(2′-chloro-2-fluorobiphenyl-3-yl)-2-azabicyclo[3.1.0]hexane-3-carboxamide] cannot be ordered by IC50: less than 1 µM for the first, less than 1 µM for the second.

In the case of `CC(=O)n1cc(NC(=O)Nc2cn(C(C)=O)c3ccccc23)c2ccccc21` [Compound 20, 1,3-bis(1-acetyl-1H-indol-3-yl)urea], the IC50 is reported as greater than 10 µM.
